The NIST ThermoML archive (doi:10.1016/j.jct.2009.11.011)
± gives the expanded uncertainty stated by the source.

Columns and labels:
[1] = molar heat capacity at saturation pressure; details: Liquid
[2] = Liquid; for mass density: Vibrating tube method; for vapor or sublimation pressure: Ebulliometric method (Recirculating still)

c1ccc2c(c1)ccc1cccnc12 [benzo[h]quinoline]
Details | mass density [kg/m3] | molar heat capacity [J/K/mol]
[1], 400 K | – | 307.8 ± 3.1
[1], 410 K | – | 312.9 ± 3.2
[1], 420 K | – | 317.9 ± 3.2
[1], 430 K | – | 323.1 ± 3.2
[1], 440 K | – | 328.2 ± 3.2
[1], 450 K | – | 333.3 ± 3.3
[1], 460 K | – | 338.4 ± 3.4
[1], 470 K | – | 343.5 ± 3.4
[1], 480 K | – | 348.5 ± 3.5
[1], 490 K | – | 353.5 ± 3.6
[1], 500 K | – | 358.4 ± 3.6
[1], 510 K | – | 363.3 ± 3.7
[1], 520 K | – | 368.1 ± 3.7
[1], 530 K | – | 372.7 ± 3.7
[1], 540 K | – | 377.2 ± 3.7
[1], 550 K | – | 381.6 ± 3.8
[1], 560 K | – | 385.8 ± 3.8
[1], 570 K | – | 389.7 ± 3.9
[1], 580 K | – | 393.4 ± 3.9
[1], 590 K | – | 396.9 ± 4
[1], 600 K | – | 400 ± 4
[2], 348.13 K | 1121.1 ± 0.11 | –
[2], 373.12 K | 1104.9 ± 0.11 | –
[2], 398.12 K | 1087.2 ± 0.1 | –
[2], 423.11 K | 1068.1 ± 0.1 | –
[2], 448.11 K | 1051.1 ± 0.1 | –
[2], 473.11 K | 1030.8 ± 0.1 | –
[2], 498.11 K | 1011.6 ± 0.1 | –
[2], 523.11 K | 992.8 ± 0.12 | –

c1ccc2c(c1)cnc1ccccc12 [phenanthridine]
Details | mass density [kg/m3] | molar heat capacity [J/K/mol] | vapor or sublimation pressure [kPa]
[1], 400 K | – | 314.5 ± 3.2 | –
[1], 410 K | – | 319.1 ± 3.2 | –
[1], 420 K | – | 323.8 ± 3.2 | –
[1], 430 K | – | 328.3 ± 3.2 | –
[1], 440 K | – | 332.9 ± 3.3 | –
[1], 450 K | – | 337.4 ± 3.4 | –
[1], 460 K | – | 341.8 ± 3.4 | –
[1], 470 K | – | 346.2 ± 3.5 | –
[1], 480 K | – | 350.6 ± 3.5 | –
[1], 490 K | – | 354.9 ± 3.6 | –
[1], 500 K | – | 359.2 ± 3.6 | –
[1], 510 K | – | 363.4 ± 3.7 | –
[1], 520 K | – | 367.6 ± 3.7 | –
[1], 530 K | – | 371.7 ± 3.7 | –
[1], 540 K | – | 375.7 ± 3.7 | –
[1], 550 K | – | 379.7 ± 3.8 | –
[1], 560 K | – | 383.7 ± 3.8 | –
[1], 570 K | – | 387.6 ± 3.9 | –
[1], 580 K | – | 391.4 ± 3.9 | –
[1], 590 K | – | 395.2 ± 4 | –
[1], 600 K | – | 398.8 ± 4 | –
[2], 423.11 K | 1081.8 ± 1.1 | – | –
[2], 448.11 K | 1062.7 ± 1.1 | – | –
[2], 473.11 K | 1043.7 ± 1 | – | –
[2], 473.89 K | – | – | 2 ± 0.01
[2], 481.92 K | – | – | 2.666 ± 0.011
[2], 493.84 K | – | – | 4 ± 0.011
[2], 498.11 K | 1023.7 ± 1 | – | –
[2], 502.72 K | – | – | 5.333 ± 0.011
[2], 515.93 K | – | – | 7.999 ± 0.012
[2], 523.11 K | 1003.9 ± 1 | – | –
[2], 525.85 K | – | – | 10.67 ± 0.013
[2], 533.86 K | – | – | 13.33 ± 0.014
[2], 542.18 K | – | – | 16.66 ± 0.015
[2], 548.11 K | 983.7 ± 1 | – | –
[2], 549.09 K | – | – | 19.93 ± 0.016
[2], 558.18 K | – | – | 25.02 ± 0.018
[2], 567.34 K | – | – | 31.18 ± 0.02
[2], 576.54 K | – | – | 38.56 ± 0.022
[2], 585.79 K | – | – | 47.38 ± 0.025
[2], 595.1 K | – | – | 57.82 ± 0.029
[2], 604.47 K | – | – | 70.12 ± 0.033
[2], 613.89 K | – | – | 84.53 ± 0.038
[2], 623.35 K | – | – | 101.33 ± 0.041
